Results: the NIST ThermoML archive (doi:10.1016/j.fluid.2011.11.023)
Numbers after ± are expanded uncertainties.

Conditions: Crystal; visual observation

Nc1cccnc1 [β-aminopyridine]
Normal melting temperature: 64.50 ± 0.5 °C
